Here are results for ten molecules from patent US20060030585A1, “Tricyclic delta-opioid modulators” (priority 2004, published 2006).

Molecules are shown by their SMILES. Read-outs that look alike come from different tables or passages of the source. Bounds are passed on as bounds.

Assay [1] addresses T1, hMOR (CHO-hMOR cell membranes) (Homo sapiens, UniProt P35372).
T1 construct: host or cells: CHO cells expressing hMOR (purchased membranes)
Put plainly: [35S]GTPγS binding assay in CHO-hMOR cell membranes. In kind it is biochemical. As to the method:
[^35]GTPγS Binding Assays in CHO-hMOR Cell Membranes
Methods: CHO-hMOR cell membranes were purchased from Receptor Biology, Inc. (Baltimore, Md.). About 10 mg/mL of membrane protein was suspended in 10 mM TRIS-HCl pH 7.2, 2 mM EDTA, 10% sucrose, and the suspension kept on ice. A 1 mL volume of membranes was added to 15 mL cold binding assay buffer containing 50 mM HEPES, pH 7.6, 5 mM MgCl2, 100 mM NaCl, 1 mM DTT and 1 mM EDTA. The membrane suspension was homogenized with a Polytron and centrifuged at 3,000 rpm for 10 min. The supernatant was then centrifuged at 18,000 rpm for 20 min. The pellet was resuspended in 10 mL assay buffer with a Polytron. The membranes were preincubated with wheat germ agglutinin coated SPA beads (Amersham) at 25° C. for 45 min in the assay buffer. The SPA bead (5 mg/mL) coupled membranes (10 μg/mL) were then incubated with 0.5 nM [^35S]GTPγS in the assay buffer. […] A range of concentrations of receptor agonist was used to stimulate [35S]GTPγS binding. Both basal and non-specific binding was tested in the absence of agonist; non-specific binding determination included 10 μM unlabeled GTPγS.
Compounds were tested for function as antagonists by evaluating their potential to inhibit agonist-stimulated GTPγS binding. Radioactivity was quantified on a Packard TopCount. The following parameters were calculated: [formula] [formula]
EC50 values were calculated using GraphPad Prism.
(In general: GTPγS is a poorly hydrolysed GTP analogue; its binding reports G protein activation.)

The target in the next assay is mu opioid receptor (Rattus norvegicus, UniProt P33535). Put plainly: Rat brain mu opioid receptor binding assay ([3H]DAMGO). Conditions: Rat mu opioid receptor binding constant, rat forebrain membranes, ~0.8 nM [3H]DAMGO.
A further assay concerns the target delta opioid receptor (Rattus norvegicus, UniProt P33533). Put plainly: Rat brain delta opioid receptor binding assay ([3H]DPDPE). Conditions: Rat delta opioid receptor binding constant, rat forebrain membranes, ~4 nM [3H]DPDPE. In outline:
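Forebrain membranes from male Sprague Dawley rats in 50 mM Tris HCl pH 7.4 with 5 mM MgCl2, incubated with ~4 nM [3H]DPDPE for 2.5 h at 25° C., then filtered and counted. Single concentrations give % inhibition of specific binding; concentration ranges give Ki.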

Assay [2] addresses T2, delta opioid receptor (NG108-15 cell membranes) (Mus musculus, UniProt P32300).
T2 construct: NG108-15 cell membranes were purchased from Applied Cell Sciences (Rockville, Md.); host or cells: NG108-15 cell membranes (purchased)
In words: [35S]GTPγS binding assay in NG108-15 cell membranes (delta opioid). Conditions: agonist-stimulated [35S]GTPγS binding. The assay is classed as biochemical. As to the method:
[^35S]GTPγS Binding Assay in NG108-15 Cell Membranes (delta opioid)
Methods: NG108-15 cell membranes were purchased from Applied Cell Sciences (Rockville, Md.). 8 mg/mL of membrane protein suspended in 10 mM TRIS-HCl pH 7.2, 2 mM EDTA, 10% sucrose. Membranes were maintained at 4-8° C. A 1 mL volume of membranes was added into 10 mL cold binding assay buffer. The assay buffer contained 50 mM Tris, pH 7.6, 5 mM MgCl2, 100 mM NaCl, 1 mM DTT and 1 mM EGTA. The membrane suspension was homogenized twice with a Polytron, and centrifuged at 3000 rpm for 10 min. The supernatant was then centrifuged at 18,000 rpm for 20 min. Ten mL assay buffer was added into the pellet containing tube. The pellet and buffer were mixed with a Polytron.
Incubation procedure: The pellet membranes (75 μg/mL) were preincubated with SPA (10 mg/mL) at 25° C. for 45 min in the assay buffer. […] GTPγS in the same Tris buffer containing 100 μM GDP in total volume of 200 μL. Increasing concentrations of receptor agonists were used to stimulate [35S]-GTPγS binding. The basal binding was tested in the absence of agonists and non-specific binding was tested in the presence of 10 μM unlabeled GTPγS. The data were analyzed on a Packard Top Count.
% of Basal=(stimulated−non specific)*100/(basal−non specific). EC50 value values were calculated using GraphPad Prism.

Where [3] appears, read: CHO-hMOR cell membranes, [35S]GTPγS binding, read-out: hMOR GTPγS EC50.
The mark [4] stands for this setting: NG108-15 cell membranes, read-out: DOR GTPγS EC50.
Setting [5] is: DOR GTPγS EC50, NG108-15 cell membranes.

T2 sequence (P32300 whole entry): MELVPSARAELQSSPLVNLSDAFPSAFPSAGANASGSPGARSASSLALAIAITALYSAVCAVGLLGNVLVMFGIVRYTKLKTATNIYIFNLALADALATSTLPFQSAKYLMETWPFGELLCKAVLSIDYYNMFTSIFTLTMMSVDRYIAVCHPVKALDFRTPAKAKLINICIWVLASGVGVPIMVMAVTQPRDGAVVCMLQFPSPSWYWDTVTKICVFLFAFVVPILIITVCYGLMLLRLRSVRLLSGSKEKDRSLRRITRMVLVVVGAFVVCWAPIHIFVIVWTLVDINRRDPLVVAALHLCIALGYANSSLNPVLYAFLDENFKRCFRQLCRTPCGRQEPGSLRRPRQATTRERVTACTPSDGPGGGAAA
Sequence of delta opioid receptor (P33533 whole entry): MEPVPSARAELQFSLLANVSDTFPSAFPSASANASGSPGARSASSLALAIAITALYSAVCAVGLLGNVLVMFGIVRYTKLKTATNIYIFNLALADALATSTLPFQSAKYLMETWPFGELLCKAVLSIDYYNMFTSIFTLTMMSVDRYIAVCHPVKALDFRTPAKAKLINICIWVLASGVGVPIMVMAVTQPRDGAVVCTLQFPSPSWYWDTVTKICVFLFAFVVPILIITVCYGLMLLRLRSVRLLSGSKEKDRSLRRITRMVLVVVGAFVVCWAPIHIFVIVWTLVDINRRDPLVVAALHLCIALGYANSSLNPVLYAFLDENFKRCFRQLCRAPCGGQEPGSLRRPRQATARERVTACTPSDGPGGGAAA
Sequence of mu opioid receptor (P33535 whole entry): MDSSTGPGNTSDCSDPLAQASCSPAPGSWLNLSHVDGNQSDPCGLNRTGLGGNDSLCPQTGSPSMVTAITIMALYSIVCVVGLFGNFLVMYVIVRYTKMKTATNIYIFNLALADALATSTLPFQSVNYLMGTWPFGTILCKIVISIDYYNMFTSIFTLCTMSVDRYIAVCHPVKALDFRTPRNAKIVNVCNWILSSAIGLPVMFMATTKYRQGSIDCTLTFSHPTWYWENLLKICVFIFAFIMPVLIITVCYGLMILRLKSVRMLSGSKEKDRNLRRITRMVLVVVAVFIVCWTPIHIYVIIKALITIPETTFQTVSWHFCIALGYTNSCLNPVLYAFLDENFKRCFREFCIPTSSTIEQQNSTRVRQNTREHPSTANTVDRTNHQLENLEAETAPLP
T1 sequence (P35372 whole entry): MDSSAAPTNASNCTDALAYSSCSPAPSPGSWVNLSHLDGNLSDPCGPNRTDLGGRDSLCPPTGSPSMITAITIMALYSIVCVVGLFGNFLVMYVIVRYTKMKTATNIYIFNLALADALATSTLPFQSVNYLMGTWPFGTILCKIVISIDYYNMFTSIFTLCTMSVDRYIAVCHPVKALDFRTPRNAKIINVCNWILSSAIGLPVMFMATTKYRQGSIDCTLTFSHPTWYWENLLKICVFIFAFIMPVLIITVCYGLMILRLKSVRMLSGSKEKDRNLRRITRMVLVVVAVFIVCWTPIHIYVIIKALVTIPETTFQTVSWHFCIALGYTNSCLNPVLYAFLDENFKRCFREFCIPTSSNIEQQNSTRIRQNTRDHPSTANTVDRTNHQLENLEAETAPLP

As for `CCN(CC)C(=N)c1ccc2c(c1)Oc1ccccc1C2=C1CC2CCC(C1)N2` [Cpd 126], the concentration giving a half-maximal response (EC50) in assay [1] (setting [3]) and in assay [2] (setting [4]) was more than 10000 nM in each case. The figures for the inhibitory constant (Ki) at mu opioid receptor (read-out: MOR Ki) and on delta opioid receptor (read-out: DOR Ki) were more than 10000 nM and 1410 nM, respectively.

For `Oc1cccc2c1Oc1cc(-c3nnn[nH]3)ccc1C2=C1CC2CCC(C1)N2` [Cpd 90], the EC50 in assay [1] (setting [3]) stood at 90 nM; in assay [2] (setting [4]) it was 0.7 nM.

For the molecule `Oc1cccc2c1Oc1cc(-c3cnc4ccccc4c3)ccc1C2=C1CC2CCC(C1)N2` [Cpd 109], the concentration for a half-maximal effect (EC50) in assay [1] (setting [3]) was 1230 nM; in assay [2] (setting [4]) it was 94.2 nM. The inhibition constant (Ki) stood at 31 nM on mu opioid receptor (read-out: MOR Ki) and 2.22 nM on delta opioid receptor (read-out: DOR Ki).

As for `CCN(CC)C(=N)c1ccc2c(c1)Oc1ccccc1C2=C1CC2CCC(C1)N2` [Cpd 125], the EC50 is more than 10000 nM in assay [1] and 78.3 nM in assay [2] (setting [5]). In addition, the Ki at mu opioid receptor (MOR Ki) turned out to be 2050 nM; at delta opioid receptor (DOR Ki), 6.3 nM.

Take `S=c1[nH]c(-c2ccc3c(c2)Oc2ccccc2C3=C2CC3CCC(C2)N3)no1` [Cpd 94]: the results for the inhibitory constant (Ki) at mu opioid receptor (read-out: MOR Ki) and at delta opioid receptor (read-out: DOR Ki) were 219 nM and 0.04 nM, respectively. The EC50 in assay [2] (setting [4]) came to 126 nM.

With `c1cncc(-c2ccc3c(c2)Oc2ccccc2C3=C2CC3CCC(C2)N3)c1` [Cpd 12, 3-(3-Pyridin-3-yl-xanthen-9-ylidene)-8-aza-bicyclo[3.2.1]octane], the EC50 in assay [1] worked out at 0.47 nM; in assay [2] (setting [5]), 587 nM. The Ki on mu opioid receptor (MOR Ki) was 2130 nM; at delta opioid receptor (DOR Ki), 24 nM.

As for `Cn1nnc(-c2ccc3c(c2)Oc2ccccc2C3=C2CC3CCC(C2)N3)n1` [Cpd 16, 3-[3-(2-Methyl-2H-tetrazol-5-yl)-xanthen-9-ylidene]-8-aza-bicyclo[3.2.1]octane], the EC50 in assay [1] came out at 0.48 nM; in assay [2] (setting [5]) it was 573 nM. Besides, the Ki on mu opioid receptor (MOR Ki) came out at 1460 nM; on delta opioid receptor (DOR Ki), 30 nM.

For `COc1cccc2c1Oc1cc(-c3ccccc3NC(C)=O)ccc1C2=C1CC2CCC(C1)N2` [Cpd 108], the Ki stood at 426 nM on mu opioid receptor (read-out: MOR Ki) and 33.9 nM at delta opioid receptor (read-out: DOR Ki). Besides, the EC50 in assay [2] (setting [4]) amounted to 117 nM.

As to `O=c1[nH]c(-c2ccc3c(c2)Oc2ccccc2C3=C2CC3CCC(C2)N3)ns1` [Cpd 8, 3-[9-(8-Aza-bicyclo[3.2.1]oct-3-ylidene)-9H-xanthen-3-yl]-4H-[1,2,4]thiadiazol-5-one], the results for the inhibition constant Ki at mu opioid receptor (MOR Ki) and at delta opioid receptor (DOR Ki) were 1080 nM and 10.8 nM, respectively. This molecule also showed a concentration for a half-maximal effect (EC50) in assay [2] (setting [5]) of 359 nM.

On to `O=c1[nH]c(-c2ccc3c(c2)Oc2ccccc2C3=C2CC3CCC(C2)N3)no1` [Cpd 4, 3-[9-(8-Aza-bicyclo[3.2.1]oct-3-ylidene)-9H-xanthen-3-yl]-4H-[1,2,4]oxadiazol-5-one], for which the Ki was determined as 768 nM on mu opioid receptor (MOR Ki) and 6.78 nM at delta opioid receptor (DOR Ki). Besides, the EC50 in assay [2] (setting [5]) is 128 nM.

Broadly, the EC50 is the concentration at which the effect is half-maximal. The Ki is the dissociation constant of the complex between target and ligand, obtained from inhibition or displacement.
